# Structures can show the parent of a compound that is named as a salt.
# What was measured:
# Assay type in all cases: cell-based
# [1] = system: Pseudomonas aeruginosa; assay: In vitro antibacterial activity, minimum inhibitory concentration (MIC)
# Protocol: (§1) Compounds: The compounds prepared in the above examples and comparative examples. All test compounds were dissolved and diluted with DMSO, and the final concentrations were prepared as 64, 32, 16, 8, 4, 2, 1, 0.5, 0.25, 0.125, 0.0625 μg/mL in the experiment.
# (§2) Bacterial strains: 6 strains of Acinetobacter baumannii (codenames: HDBAB-YK4, HDBAB-YK7, HDBAB-YK12, HDBAB-YK16, HDBAB_OXA_7, ATCC 19606), 2 strains of Pseudomonas aeruginosa (codenames: HDBPA-YK9, HDBPA)-YK15), 1 strain of Escherichia coli (codename: CLB30048), all provided by HD Biosciences (Shanghai) Co., Ltd.
# (§3) Medium: Trypticase soy agar (TSA) (BD BBL 211043), and Cation-adjusted Mueller Hinton broth (CAMHB) (BD BBL212322).
# (§4) The bacteria used for the minimum inhibitory concentration (MIC) test were stored frozen at −80° C., and needed 2 days to recover before use. A small amount of frozen bacteria was scraped with a sterile inoculation loop for streak inoculation on a TSA solid medium petri dish. The dish was placed in an ordinary incubator at 35±2° C. for 20-24 hours. 5-10 Colonies with similar morphologies were picked from the above-mentioned petri dish with a sterile inoculating loop for streak inoculation again on a TSA solid medium petri dish. The dish was then placed in an ordinary incubator at 35±2° C. for 20-24 hours.
# (§5) 1.02×CAMHB liquid medium was taken out from a 4° C. refrigerator and placed at room temperature for preheating. 5-10 Individual bacterial colonies were picked from the solid petri dish of the above Section 2.1 and re-suspended in 500 μL of 0.9% NaCl, and then the OD600 was adjusted to 0.1-0.15 with a spectrophotometer. Then the bacteria were diluted 400 times with 1.02×CAMHB (two-step dilution method: firstly diluting 10 times, then diluting 40 times).
# (§6) The number of inoculated bacteria can be obtained by counting the colonies on the petri dish (see Section 2.4).
# (§7) One compound was arranged in each row of a 96-well test plate: the highest test concentration for each compound was 64 μg/mL, which was diluted by a factor of two.
# (§8) Growth control (GC): 1.02×CAMHB and dimethyl sulfoxide (DMSO) containing bacterial inoculum, no compound.
# (§9) Sterile control (SC): Containing 1.02×CAMHB and DMSO, no compound.
# (§10) All test compounds were dissolved and diluted with DMSO. 50 μL of 3.2 mg/mL of each test compound was transferred to the initial well (A1-H1) of the dilution plate, and then 25 μL of DMSO was transferred to other wells. The test compounds were sequentially diluted by a factor of 2 from column 1 to column 11 (i.e. drawing 25 μL of test compound from column 1 to column 2 and mixing well, and then drawing 25 μL of test compound from column 2 to column 3 and mixing well, and then drawing 25 μL of test compound from column 3 to column 4 and mixing well, and so on, until diluting to column 11).
# (§11) 2 μL of the compound was transferred from the compound plate to the corresponding well of the test plate. Meanwhile, 2 μL of 100% DMSO was transferred to the compound-free wells (the GC and SC wells).
# (§12) 98 μL of the corresponding bacterial inoculum was added to the test plate (except for the SC well).
# (§13) 98 μL of 1.02×CAMHB medium was added to the SC well of the test plate.
# (§14) After the system was added, the test plate was covered with a sterile lid, centrifuged at 800 rpm for 30 seconds, then shaken on a plate shaker at 400 rpm for 1 minute for mixing well, and then placed in an incubator at 35±2° C. for 20 hours.
# (§15) The inoculated bacteria were gradient diluted by 10 folds with the liquid medium, from 10^−1 to 10^−3. 100 μL of the above bacterial dilution was spread evenly on a TSA petri dish, 2 replicates for each dilution. After the medium was absorbed by TSA for 10 minutes, the petri dishes were reversed and incubated in an incubator at 35±2° C. for 24 hours.
# (§16) A compound management system was turned on to check whether the barcode and compound arrangement of each test plate were correct. […]
# [2] = system: Acinetobacter baumannii; assay: as above
# Protocol: as §1, §2, §3, §4, §5, §6, §7, §8, §9, §10, §11, §12, §13, §14, §15, §16
# [3] = system: Escherichia coli; assay: as above; conditions: strain CLB30048, read-out: MIC
# Protocol: as §1, §2, §3, §4, §5, §6, §7, §8, §9, §10, §11, §12, §13, §14, §15, §16
# [4] = system: drug-resistant Acinetobacter baumannii; assay: MIC in combination with Relebactam
# Text: In addition, the inventors of the present invention also tested the inhibitory activities of the compound of Example 1 and Compound C, respectively, in combination with Relebactam on drug-resistant Acinetobacter baumannii (the experimental method was the same as that in Experimental Example 1).
smiles,measurement,setting,value
"CC1(C)[C@H](NC(=O)/C(=N\O[C@@H](COc2ccc(C(=O)Nc3cn(CCCN)[n+](CC4CNC4)c3)cc2)C(=O)O)c2csc(N)n2)C(=O)N1OS(=O)(=O)[O-] [Example 1, (S)-3-((Z)-2-(((S)-2-(4-((1-(3-aminopropyl)-2-(azetidin-3-ylmethyl)-1H-pyrazol-2-ium-4-yl)carbamoyl)phenoxy)-1-carboxyethoxy)imino)-2-(2-aminothiazol-4-yl)acetylamino)-2,2-dimethyl-4-oxoazetidin-1-yl Sulfate]",MIC,[1]; strain HDBPA-YK9,2 µg/mL
same,MIC,[1]; strain HDBPA-YK15,32 µg/mL
same,MIC,"[2]; ATCC19606, strain ATCC 19606",2 µg/mL
same,MIC,[2]; strain HDBAB-YK4,2 µg/mL
same,MIC,[2]; strain HDBAB-YK7,0.25 µg/mL
same,MIC,[2]; strain HDBAB-YK12,2 µg/mL
same,MIC,[2]; strain HDBAB-YK16,8 µg/mL
same,MIC,[2]; strain HDBAB_OXA_7,4 µg/mL
same,MIC,[3],2 µg/mL
same,MIC,"[4]; strain HDBAB-YK12, in combination with 4 μg/mL Relebactam",2 µg/mL
same,MIC,"[4]; strain HDBAB-YK16, in combination with 4 μg/mL Relebactam",4 µg/mL
same,MIC,"[4]; strain HDBAB_OXA_7, in combination with 4 μg/mL Relebactam",2 µg/mL

# — patent US20220002288A1, “MONOBACTAM COMPOUNDS AND USE THEREFOR” (priority 2018, published 2022)
